Assay results published in patent US20250041263A1, “USE OF CATECHIN FOR THE TREATMENT OF FGFR-RELATED BONE REPAIR AND BONE FORMATION IMPAIRMENT” (INSTITUT NATIONAL DE LA SANTÉ ET DE LA RECHERCHE MÉDICALE, priority 2021, published 2025).

Test system: HCH mice (Fgfr3^N534K/+)
Experiment: Non-stabilized mandibular fracture repair in HCH mouse model (microCT, repair grade)
Assay type: in vivo
Conditions: for BV/TV, treated vs untreated HCH mice: p<0.05
Experimental: I-Study of mandibular bone repair in the mouse model of hypochondroplasia (Fgfr3^[…]/+) Mandibular bone repair was studied in the HCH mouse model (Fgfr3^[…]/+). The experiments were performed in adult animals at 6 weeks of age, and mice were euthanized at 4 key points: during bone repair (10, 14, 21 days post fracture), and at the end of the normal bone healing process i.e. at 28 days post fracture. Vertical mandibular fractures were performed in the ascending ramus region in Fgfr3^[…]/+ and Fgfr3^+/+ mice. This is a non-stabilized mandibular fracture protocol allowing to analyze the endochondral bone repair process. Four batches (n=100) of Fgfr3^[…]/+ and Fgfr3^+/+ mandible fractures corresponding to different key stages of repair were studied (day 10, day 14, day 21, day 28). Using collagen type II (proliferative cartilage), type X (hypertrophic cartilage) and type I (bone) immunolabelling, we observed that the endochondral process is disturbed, we noted a delayed cartilage resorption, a reduction in the size of hypertrophic chondrocytes area and a defect in bone formation within the repair callus in Fgfr3^[…]/+ compared to Fgfr3^+/+. […] We observed the presence of pseudarthrosis (fibrosis in the callus) in Fgfr3^[…]/+ mice whereas we observed 100% of bone in Fgfr3^+/+ callus. Considering the quality of the newly formed bone at day 28, we defined four grades of repair and classified the mice according to their repair grade (from 1 to 4). The defective repair is significant in Fgfr3^[…]/+ compared to Fgfr3^+/+ (Data not shown). HCH mice (Fgfr3^[…]/+) were treated with (-)-epicatechin (subcutaneous injection at 0.3 mg/kg, 3 times per week) from day 0 (facture of the mandible) to day 14 or day 28. The bone repair analyses were evaluated by microCT scans at day 14 (FIG. 1A) and day 28 (FIG. 1B) post fracture.

[1] = day 28 grade repair, treated HCH mice
[2] = microCT, day 14 post fracture, FIG. 1A
[3] = microCT, day 28 post fracture, FIG. 1B
[4] = summary statement, time not stated

Compound: Oc1cc(O)c2c(c1)O[C@H](c1ccc(O)c(O)c1)[C@H](O)C2 [(−)-epicatechin, (2R,3R)-2-(3,4-dihydroxyphenyl)-3,4-dihydro-2H-chromene-3,5,7-triol]
- Complete bone healing (grade 1), mice with grade / treated mice [1]: 1/9
- Restoration of bone continuity, but presence of mild bone defects (grade 2), mice with grade / treated mice [1]: 6/9
- presence of a bone callus, but with partial bone discontinuity (grade 3), mice with grade / treated mice [1]: 2/9
- pseudarthrosis in treated HCH mice (day 28 post fracture): did not observe pseudarthrosis
- BV/TV of treated Fgfr3^N534K/+ mandibles (in words) [2]: increased
- volume of the callus, treated vs untreated Fgfr3^N534K/+ (in words) [2]: unchanged
- BV/TV, treated vs untreated HCH mice (microCT, day 14 post fracture, subcutaneous 0.3 mg/kg, 3 times per week from day 0): +19%
- BV/TV of treated Fgfr3^N534K/+ mandibles (in words) [3]: increased
- volume of the callus, treated vs untreated Fgfr3^N534K/+ (in words) [3]: decreased
- volume of the callus, treated vs untreated HCH mice (microCT, day 28 post fracture, subcutaneous 0.3 mg/kg, 3 times per week from day 0, p<0.01): −39.8%
- BV/TV, treated vs untreated HCH mice (microCT, day 28 post fracture, subcutaneous 0.3 mg/kg, 3 times per week from day 0): +6.3%
- mandible bone formation and repair / defective bone reparation of the callus (overall, in words) [4]: improves

Compound: catechin
- bone volume/total volume (overall, in words) [4]: increases
- mandible bone formation and repair / defective bone reparation of the callus (overall, in words) [4]: partially restores
- pseudarthrosis (overall, in words) [4]: without pseudarthrosis
